# Source: patent US7601728B2, “Bicyclic pyrrole derivatives” (Dainippon Sumitomo Pharma Co., Ltd., priority 2004, dated 2009)
# Counter-ions that a name gives are not always drawn.
# Biological target: T1, Human DPP IV (Homo sapiens, UniProt P27487)
# T1 construct: Human serum containing DPP-IV enzyme was diluted finally 9- to 20-fold with assay buffer; from tissue; host or cells: human serum
# Assay: In Vitro DPP-IV Inhibitory Effect Measurement Test
# Format: biochemical
# Settings: human serum containing DPP-IV enzyme; substrate Glycyl-L-Proline 4-Methyl-Coumaryl-7-Amide 10 to 100 μM; room temperature; fluorescence 360/460 nm; read-out: Human DPP IV inhibiting activity IC50
# Description: In Vitro DPP-IV Inhibitory Effect Measurement Test
# Human serum containing DPP-IV enzyme was diluted finally 9- to 20-fold with assay buffer and added to a microassay plate. Each of solutions of each test compound having various concentrations was added thereto, followed by adding thereto a substrate (Glycyl-L-Proline 4-Methyl-Coumaryl-7-Amide, Peptide Laboratories Co., Ltd.) to a final concentration of 10 to 100 μM, and the reaction was carried out at room temperature. Acetic acid was added thereto to a final concentration of 0.5% to terminate the reaction, and the intensity of fluorescence at an excitation wavelength of 360 nm and a measuring wavelength of 460 nm was measured by the use of a fluorescent plate reader.
# T1 sequence (P27487 39-766 limits assumed): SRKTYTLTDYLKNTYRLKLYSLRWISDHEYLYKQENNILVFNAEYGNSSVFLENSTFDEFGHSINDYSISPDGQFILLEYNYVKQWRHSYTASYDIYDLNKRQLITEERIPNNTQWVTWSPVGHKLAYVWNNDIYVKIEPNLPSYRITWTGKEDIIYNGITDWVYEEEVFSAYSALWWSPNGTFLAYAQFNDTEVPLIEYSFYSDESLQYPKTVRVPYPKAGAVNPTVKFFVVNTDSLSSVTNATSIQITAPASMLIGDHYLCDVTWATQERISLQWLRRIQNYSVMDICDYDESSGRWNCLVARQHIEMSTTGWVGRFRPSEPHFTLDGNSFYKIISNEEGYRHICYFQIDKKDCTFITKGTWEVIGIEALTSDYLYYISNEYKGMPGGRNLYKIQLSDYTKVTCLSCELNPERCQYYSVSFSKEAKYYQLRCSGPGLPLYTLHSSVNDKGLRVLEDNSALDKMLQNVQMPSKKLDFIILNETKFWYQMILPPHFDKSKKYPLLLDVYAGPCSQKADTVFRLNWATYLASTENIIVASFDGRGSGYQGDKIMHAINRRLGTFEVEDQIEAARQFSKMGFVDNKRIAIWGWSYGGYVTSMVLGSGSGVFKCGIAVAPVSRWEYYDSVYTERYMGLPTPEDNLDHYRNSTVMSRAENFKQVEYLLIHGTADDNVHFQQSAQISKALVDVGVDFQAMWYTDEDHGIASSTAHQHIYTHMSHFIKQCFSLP
row,SMILES,IC50 [nM]
1,COCCNC(=O)c1c(N2CCC[C@@H](N)C2)n(Cc2cc(F)ccc2Cl)c2c(=O)n(C)c(=O)n(C)c12 [Example 41],4.1
2,"Cn1c(S(C)(=O)=O)nc2c(C#N)c(N3CCC[C@@H](N)C3)n(Cc3ccccc3Cl)c2c1=O [Example 4, 6-[(3R)-3-Aminopiperidin-1-yl]-5-(2-chlorobenzyl)-3-methyl-2-(methylsulfonyl)-4-oxo-4,5-dihydro-3H-pyrrolo[3,2-d]pyrimidine-7-carbonitrile hydrochloride]",28
3,Cn1c(=O)n(CC(=O)c2ccccc2)c(=O)c2c1cc(N1CCC[C@@H](N)C1)n2Cc1cc(F)ccc1Cl [Example 19],7.1
4,"Cn1c(O)nc2c(C#N)c(N3CCC[C@@H](N)C3)n(Cc3ccccc3Cl)c2c1=O [Example 3, 6-[(3R)-3-Aminopiperidin-1-yl]-5-(2-chlorobenzyl)-2-hydroxy-3-methyl-4-oxo-4,5-dihydro-3H-pyrrolo[3,2-d]pyrimidine-7-carbonitrile hydrochloride]",26
5,"CCOc1cccc(Oc2nc3c(C#N)c(N4CCC[C@@H](N)C4)n(Cc4ccccc4Cl)c3c(=O)n2C)c1 [Example 1, 6-[(3R)-3-Aminopiperidin-1-yl]-5-(2-chlorobenzyl)-2-(3-ethoxyphenoxy)-3-methyl-4-oxo-4,5-dihydro-3H-pyrrolo[3,2-d]pyrimidine-7-carbonitrile hydrochloride]",76
6,COCc1c(N2CCC[C@@H](N)C2)n(Cc2ccccc2Cl)c2c(=O)n(C)c(=O)n(C)c12 [Example 56],31
7,"Cn1c(=O)c2c(cc(N3CCC[C@@H](N)C3)n2Cc2cc(F)ccc2Cl)n(C)c1=O [Example 6, 6-(3-Aminopiperidin-1-yl)-5-(2-chloro-5-fluorobenzyl)-1,3-dimethyl-1H-pyrrolo[3,2-d]pyrimidine-2,4(3H,5H)-dione hydrochloride]",1.9
8,CC(=O)c1c(N2CCC[C@@H](N)C2)n(Cc2ccccc2Cl)c2c(=O)n(C)c(=O)n(C)c12 [Example 61],85
9,CCOC(=O)c1c(N2CCC[C@@H](N)C2)n(Cc2ccccc2Cl)c2c(=O)n(C)c(=O)n(C)c12 [Example 24],44
10,"Cn1c(Oc2ccccc2C(N)=O)nc2c(C#N)c(N3CCC[C@@H](N)C3)n(Cc3ccccc3Cl)c2c1=O [Example 7, 2-{[6-(3-Aminopiperidin-1-yl)-5-(2-chlorobenzyl)-7-cyano-3-methyl-4-oxo-4,5-dihydro-3H-pyrrolo[3,2-d]pyrimidin-2-yl]oxy}benzamide hydrochloride]",60
11,CN(C)C(=O)c1c(N2CCC[C@@H](N)C2)n(Cc2ccccc2Cl)c2c(=O)n(C)c(=O)n(C)c12 [Example 25],7.6
12,"CCOC(=O)c1c(N)c(C#N)c(N2CCC[C@@H](N)C2)n1Cc1ccccc1Cl [Example 72, Ethyl 3-amino-5-[(3R)-3-aminopiperidin-1-yl]-1-(2-chlorobenzyl)-4-cyano-1H-pyrrole-2-carboxylate hydrochloride]",1200
13,Cn1c(=O)c2c(c(C(=O)NCC(O)CO)c(N3CCC[C@@H](N)C3)n2Cc2ccccc2Cl)n(C)c1=O (stereo partly shown) [Example 32],7.5
14,CC#CCn1c(N2CCC[C@@H](N)C2)cc2c1c(=O)n(C)c(=O)n2C [Example 14],55
15,Cn1c(=O)c2c(c(C(=O)NCC(F)(F)F)c(N3CCC[C@@H](N)C3)n2Cc2cc(F)ccc2Cl)n(C)c1=O [Example 42],5.7
16,Cn1c(=O)c2c(c(C(=O)N3CCOCC3)c(N3CCC[C@@H](N)C3)n2Cc2cc(F)ccc2Cl)n(C)c1=O [Example 44],9
17,Cn1c(=O)c2c(cc(N3CCC[C@@H](N)C3)n2Cc2ccccc2C#N)n(C)c1=O [Example 8],7.4
18,"Cn1c(=O)c2c(c(C#N)c(N3CCC[C@H](N)C3)n2Cc2cc(F)ccc2Cl)n(C)c1=O [Example 70, 6-[(3S)-3-Aminopiperidin-1-yl]-5-(2-chloro-5-fluorobenzyl)-1,3-dimethyl-2,4-dioxo-2,3,4,5-tetrahydro-1H-pyrrolo[3,2-d]pyrimidine-7-carbonitrile hydrochloride]",3800
19,Cn1c(=O)[nH]c(=O)c2c1cc(N1CCC[C@@H](N)C1)n2Cc1cc(F)ccc1Cl [Example 20],4.3
20,COc1ccc(-c2c(N3CCC[C@@H](N)C3)n(Cc3ccccc3Cl)c3c(=O)n(C)c(=O)n(C)c23)cc1 [Example 62],56
21,"Cn1c(=O)c2c(c(C#N)c(N3CCC[C@@H](N)C3)n2Cc2ccccc2Cl)n(C)c1=O [Example 2, 6-[(3R)-3-Aminopiperidin-1-yl]-5-(2-chlorobenzyl)-1,3-dimethyl-2,4-dioxo-2,3,4,5-tetrahydro-1H-pyrrolo[3,2-d]pyrimidine-7-carbonitrile hydrochloride]",21
22,Cn1c(=O)n(Cc2cc3ccccc3cn2)c(=O)c2c1cc(N1CCC[C@@H](N)C1)n2Cc1cc(F)ccc1Cl [Example 18],12
23,Cn1cnc2c(C(=O)N3CCOCC3)c(N3CCC[C@@H](N)C3)n(Cc3cc(F)ccc3Cl)c2c1=O [Example 66],5.5
24,Cn1c(=O)c2c(c(C(=O)N3CCC(O)CC3)c(N3CCC[C@@H](N)C3)n2Cc2ccccc2Cl)n(C)c1=O [Example 33],12
25,Cn1cnc2cc(N3CCC[C@@H](N)C3)n(Cc3cc(F)ccc3Cl)c2c1=O [Example 64],13
26,Cn1c(=O)c2c(c(C(=O)NC3CCC3)c(N3CCC[C@@H](N)C3)n2Cc2cc(F)ccc2Cl)n(C)c1=O [Example 40],6.8
27,"Cn1c(=O)c2c(cc(N3CCC[C@@H](N)C3)n2Cc2ccccc2Cl)n(C)c1=O [Example 5, 6-(3-Aminopiperidin-1-yl)-5-(2-chlorobenzyl)-1,3-dimethyl-1H-pyrrolo[3,2-d]pyrimidine-2,4(3H,5H)-dione hydrochloride]",15
28,Cn1c(=O)c2c(c(C(=O)N3CCCC3)c(N3CCC[C@@H](N)C3)n2Cc2ccccc2Cl)n(C)c1=O [Example 27],9.8
